Activity calls are given as the source filed them.
Experiments:
[1] = biological target: T1, Heat shock factor protein 1 (Mus musculus, UniProt P38532); assay: decrease of HSF1-responsive luciferase luminescence – cell-based, NIH3T3, dose retest, confirmation (AID 2382); assay type: functional;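 note: NIH3T3 fibroblasts with HSF1-driven luciferase reporter stressed by proteasome inhibitor MG132; luminescence from HSF1-driven luciferase expression after 8 hours of MG132 stress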
T1 sequence (P38532 whole entry): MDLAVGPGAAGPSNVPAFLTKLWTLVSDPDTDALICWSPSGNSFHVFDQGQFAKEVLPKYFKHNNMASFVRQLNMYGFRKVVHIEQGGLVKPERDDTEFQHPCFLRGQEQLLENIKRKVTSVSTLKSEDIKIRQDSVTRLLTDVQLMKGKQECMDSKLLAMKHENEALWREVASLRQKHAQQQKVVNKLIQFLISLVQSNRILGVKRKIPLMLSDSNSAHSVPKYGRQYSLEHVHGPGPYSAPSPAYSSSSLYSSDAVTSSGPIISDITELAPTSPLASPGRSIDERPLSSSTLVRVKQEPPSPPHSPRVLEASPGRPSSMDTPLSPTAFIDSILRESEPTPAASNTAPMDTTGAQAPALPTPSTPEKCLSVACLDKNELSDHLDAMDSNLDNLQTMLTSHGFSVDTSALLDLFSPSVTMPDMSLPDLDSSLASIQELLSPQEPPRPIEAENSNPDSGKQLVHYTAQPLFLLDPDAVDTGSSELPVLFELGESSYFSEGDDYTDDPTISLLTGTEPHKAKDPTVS

[2] = biological target: Nonstructural protein 1 (Influenza A virus, UniProt Q194T2); assay type: functional, Influenza A virus (A/California/07/2009(H1N1))
[3] = biological target: Tyrosine-protein kinase Lyn (Homo sapiens, UniProt P07948); assay type: functional;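 note: lyn as one member of a kinase panel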
[4] = biological target: Tyrosine-protein kinase Fer (Homo sapiens, UniProt P16591); assay type: functional;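 note: FER tested as one member of a kinome panel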
[5] = biological target: Homeodomain-interacting protein kinase 2 (Homo sapiens, UniProt Q9H2X6); assay type: functional;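 note: measured within a kinome-wide kinase profiling panel, HIPK2 being one panel member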
[6] = biological target: Tyrosine-protein kinase JAK3 (Homo sapiens, UniProt P52333); assay type: functional
[7] = biological target: Insulin-like growth factor 1 receptor (Homo sapiens, UniProt P08069); assay: Navigating the Kinome. Panel member name: IGF1R; assay type: functional
[8] = biological target: Testis-specific serine/threonine-protein kinase 2 (Homo sapiens, UniProt Q96PF2); assay type: functional;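 note: part of the Navigating the Kinome panel, target entry STK22B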
Chain of Testis-specific serine/threonine-protein kinase 2 (Q96PF2 whole entry): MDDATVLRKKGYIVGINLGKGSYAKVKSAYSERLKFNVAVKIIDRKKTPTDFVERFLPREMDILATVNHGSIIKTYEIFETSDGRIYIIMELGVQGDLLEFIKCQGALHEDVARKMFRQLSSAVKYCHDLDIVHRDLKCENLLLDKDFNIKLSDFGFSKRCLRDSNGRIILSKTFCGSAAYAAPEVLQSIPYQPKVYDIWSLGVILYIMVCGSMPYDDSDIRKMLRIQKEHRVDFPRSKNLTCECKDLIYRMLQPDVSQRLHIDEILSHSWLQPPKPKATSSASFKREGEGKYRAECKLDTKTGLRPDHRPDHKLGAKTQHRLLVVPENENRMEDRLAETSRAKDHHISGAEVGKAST

[9] = biological target: Receptor tyrosine-protein kinase erbB-4 (Homo sapiens, UniProt Q15303); assay type: functional;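 note: ERBB4 member of a kinome-wide kinase profiling panel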
[10] = biological target: Dual specificity tyrosine-phosphorylation-regulated kinase 1A (Homo sapiens, UniProt Q13627); assay type: functional;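 note: measured against DYRK1A as one member of a broad kinome profiling panel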
[11] = biological target: Protein kinase C iota type (Homo sapiens, UniProt P41743); assay type: functional;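 note: measured within a kinome-wide kinase panel, PRKCI as panel member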
[12] = biological target: Tyrosine-protein kinase SYK (Homo sapiens, UniProt P43405); assay type: functional
[13] = biological target: MAP kinase-interacting serine/threonine-protein kinase 2 (Homo sapiens, UniProt Q9HBH9); assay type: functional
[14] = biological target: Rho-associated protein kinase 2 (Homo sapiens, UniProt O75116); assay type: functional
[15] = biological target: Tyrosine-protein kinase Blk (Homo sapiens, UniProt P51451); assay type: functional;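 note: obtained as one member of a kinome-wide kinase assay panel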
[16] = biological target: BDNF/NT-3 growth factors receptor (Homo sapiens, UniProt Q16620); assay type: functional;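 note: NTRK2 measured as one member of a broad kinome-wide kinase profiling panel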
[17] = biological target: Serine/threonine-protein kinase PAK 4 (Homo sapiens, UniProt O96013); assay type: functional;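 note: value obtained within a kinome profiling panel in which PAK4 was one of the panel members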
Chain of Serine/threonine-protein kinase PAK 4 (O96013 whole entry): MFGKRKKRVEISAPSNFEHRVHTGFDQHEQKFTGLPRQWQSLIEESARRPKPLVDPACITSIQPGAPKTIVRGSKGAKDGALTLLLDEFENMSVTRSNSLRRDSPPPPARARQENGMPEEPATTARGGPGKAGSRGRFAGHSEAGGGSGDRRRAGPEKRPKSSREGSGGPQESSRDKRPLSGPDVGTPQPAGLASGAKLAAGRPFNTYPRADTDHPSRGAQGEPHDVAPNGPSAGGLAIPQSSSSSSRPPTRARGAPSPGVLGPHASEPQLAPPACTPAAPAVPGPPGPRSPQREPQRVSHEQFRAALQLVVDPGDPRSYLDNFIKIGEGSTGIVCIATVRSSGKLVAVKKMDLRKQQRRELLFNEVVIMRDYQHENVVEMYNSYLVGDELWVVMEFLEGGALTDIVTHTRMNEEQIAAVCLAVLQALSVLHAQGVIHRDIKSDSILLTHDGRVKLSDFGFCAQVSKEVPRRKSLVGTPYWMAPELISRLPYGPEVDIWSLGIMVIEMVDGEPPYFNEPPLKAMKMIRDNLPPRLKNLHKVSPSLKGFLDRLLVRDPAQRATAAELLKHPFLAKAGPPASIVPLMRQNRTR

[18] = biological target: Aurora kinase A (Homo sapiens, UniProt O14965); assay type: functional;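 note: value from the Navigating the Kinome kinase panel profiling, panel entry STK6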
[19] = biological target: Tyrosine-protein kinase receptor TYRO3 (Homo sapiens, UniProt Q06418); assay type: functional;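 note: TYRO3 value obtained as one member of a kinome-wide profiling panel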
[20] = biological target: Tyrosine-protein kinase FRK (Homo sapiens, UniProt P42685); assay type: functional;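 note: FRK tested as one member of a kinome panel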
Chain of Tyrosine-protein kinase FRK (P42685 whole entry): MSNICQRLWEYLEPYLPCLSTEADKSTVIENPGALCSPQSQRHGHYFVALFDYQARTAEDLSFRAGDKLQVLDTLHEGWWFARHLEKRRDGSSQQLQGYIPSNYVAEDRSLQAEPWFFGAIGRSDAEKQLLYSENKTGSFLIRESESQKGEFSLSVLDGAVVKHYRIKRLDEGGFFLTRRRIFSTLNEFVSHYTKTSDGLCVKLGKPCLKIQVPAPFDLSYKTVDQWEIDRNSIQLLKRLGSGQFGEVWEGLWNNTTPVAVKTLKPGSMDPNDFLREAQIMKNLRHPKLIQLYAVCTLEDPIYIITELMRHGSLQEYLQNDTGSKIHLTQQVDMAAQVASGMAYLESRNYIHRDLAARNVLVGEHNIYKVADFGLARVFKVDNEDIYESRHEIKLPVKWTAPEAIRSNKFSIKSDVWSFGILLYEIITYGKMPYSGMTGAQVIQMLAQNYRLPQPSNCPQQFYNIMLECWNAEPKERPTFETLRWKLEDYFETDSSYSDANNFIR

[21] = biological target: 3-phosphoinositide-dependent protein kinase 1 (Homo sapiens, UniProt O15530); assay type: functional;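 note: value comes from the Navigating the Kinome panel, PDPK1 member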
[22] = biological target: Tyrosine-protein kinase JAK2 (Homo sapiens, UniProt O60674); assay type: functional;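 note: JAK2 tested as one member of a kinase panel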
[23] = biological target: MAP kinase-activated protein kinase 5 (Homo sapiens, UniProt Q8IW41); assay type: functional;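 note: measured as one member of a kinome panel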
Chain of MAP kinase-activated protein kinase 5 (Q8IW41 whole entry): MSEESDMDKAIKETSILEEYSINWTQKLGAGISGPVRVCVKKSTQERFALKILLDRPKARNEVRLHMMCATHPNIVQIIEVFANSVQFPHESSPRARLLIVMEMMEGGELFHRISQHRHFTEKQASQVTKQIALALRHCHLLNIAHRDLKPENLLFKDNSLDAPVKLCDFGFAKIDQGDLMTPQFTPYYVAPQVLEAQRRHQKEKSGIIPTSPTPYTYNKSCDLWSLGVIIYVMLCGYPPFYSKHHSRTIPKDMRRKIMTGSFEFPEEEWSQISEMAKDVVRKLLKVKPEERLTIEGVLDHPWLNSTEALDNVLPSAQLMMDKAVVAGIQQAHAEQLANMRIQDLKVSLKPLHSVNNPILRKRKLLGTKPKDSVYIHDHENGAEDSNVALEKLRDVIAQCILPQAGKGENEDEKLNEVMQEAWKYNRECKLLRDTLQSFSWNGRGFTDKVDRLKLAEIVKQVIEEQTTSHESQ

[24] = biological target: T2, Sentrin-specific protease 8 (Homo sapiens, UniProt Q96LD8); assay type: functional
T2 sequence (Q96LD8 whole entry): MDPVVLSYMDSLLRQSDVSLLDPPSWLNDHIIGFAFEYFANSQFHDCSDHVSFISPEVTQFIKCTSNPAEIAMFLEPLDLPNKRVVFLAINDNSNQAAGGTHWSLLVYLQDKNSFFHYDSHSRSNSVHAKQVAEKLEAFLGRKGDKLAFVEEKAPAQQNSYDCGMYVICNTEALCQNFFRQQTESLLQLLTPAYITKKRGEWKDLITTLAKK

[25] = biological target: T3, Caspase-3 (Homo sapiens, UniProt P42574); assay: Dose-response confirmation of uHTS inhibitor hits of Sentrin-Specific Protease 8 in a Caspase-3 Fluorescence assay.; assay type: functional
T3 sequence (P42574 whole entry): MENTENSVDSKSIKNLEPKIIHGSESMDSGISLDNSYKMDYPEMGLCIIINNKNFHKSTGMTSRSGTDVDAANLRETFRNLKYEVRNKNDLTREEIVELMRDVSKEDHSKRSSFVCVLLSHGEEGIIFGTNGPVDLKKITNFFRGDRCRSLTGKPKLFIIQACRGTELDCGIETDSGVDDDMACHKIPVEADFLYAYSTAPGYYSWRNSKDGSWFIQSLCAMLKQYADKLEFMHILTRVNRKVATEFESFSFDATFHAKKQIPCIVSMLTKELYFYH

[26] = biological target: Heat shock protein HSP 90-alpha (Homo sapiens, UniProt P07900); assay type: functional, organism-based
[27] = general cell-killing toxicity readout – plate reader, dry powder samples, cytotoxicity control for PAX8 inhibitor project, dose response (AID 743021); assay type: functional, cell-based
[28] = biological target: Sphingosine 1-phosphate receptor 1 (Homo sapiens, UniProt P21453); assay type: functional;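 note: Tango beta-arrestin reporter U2OS cells stimulated with S1P near its EC80; inhibitor potency meaning antagonism of receptor activation by the natural agonist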
[29] = biological target: T4, Voltage-gated N-type calcium channel alpha-1B subunit/Amyloid beta A4 precursor protein-binding family A member 1 (Homo sapiens, UniProt Q00975+Q02410); assay type: protein assay
T4 sequence (Q00975 whole entry): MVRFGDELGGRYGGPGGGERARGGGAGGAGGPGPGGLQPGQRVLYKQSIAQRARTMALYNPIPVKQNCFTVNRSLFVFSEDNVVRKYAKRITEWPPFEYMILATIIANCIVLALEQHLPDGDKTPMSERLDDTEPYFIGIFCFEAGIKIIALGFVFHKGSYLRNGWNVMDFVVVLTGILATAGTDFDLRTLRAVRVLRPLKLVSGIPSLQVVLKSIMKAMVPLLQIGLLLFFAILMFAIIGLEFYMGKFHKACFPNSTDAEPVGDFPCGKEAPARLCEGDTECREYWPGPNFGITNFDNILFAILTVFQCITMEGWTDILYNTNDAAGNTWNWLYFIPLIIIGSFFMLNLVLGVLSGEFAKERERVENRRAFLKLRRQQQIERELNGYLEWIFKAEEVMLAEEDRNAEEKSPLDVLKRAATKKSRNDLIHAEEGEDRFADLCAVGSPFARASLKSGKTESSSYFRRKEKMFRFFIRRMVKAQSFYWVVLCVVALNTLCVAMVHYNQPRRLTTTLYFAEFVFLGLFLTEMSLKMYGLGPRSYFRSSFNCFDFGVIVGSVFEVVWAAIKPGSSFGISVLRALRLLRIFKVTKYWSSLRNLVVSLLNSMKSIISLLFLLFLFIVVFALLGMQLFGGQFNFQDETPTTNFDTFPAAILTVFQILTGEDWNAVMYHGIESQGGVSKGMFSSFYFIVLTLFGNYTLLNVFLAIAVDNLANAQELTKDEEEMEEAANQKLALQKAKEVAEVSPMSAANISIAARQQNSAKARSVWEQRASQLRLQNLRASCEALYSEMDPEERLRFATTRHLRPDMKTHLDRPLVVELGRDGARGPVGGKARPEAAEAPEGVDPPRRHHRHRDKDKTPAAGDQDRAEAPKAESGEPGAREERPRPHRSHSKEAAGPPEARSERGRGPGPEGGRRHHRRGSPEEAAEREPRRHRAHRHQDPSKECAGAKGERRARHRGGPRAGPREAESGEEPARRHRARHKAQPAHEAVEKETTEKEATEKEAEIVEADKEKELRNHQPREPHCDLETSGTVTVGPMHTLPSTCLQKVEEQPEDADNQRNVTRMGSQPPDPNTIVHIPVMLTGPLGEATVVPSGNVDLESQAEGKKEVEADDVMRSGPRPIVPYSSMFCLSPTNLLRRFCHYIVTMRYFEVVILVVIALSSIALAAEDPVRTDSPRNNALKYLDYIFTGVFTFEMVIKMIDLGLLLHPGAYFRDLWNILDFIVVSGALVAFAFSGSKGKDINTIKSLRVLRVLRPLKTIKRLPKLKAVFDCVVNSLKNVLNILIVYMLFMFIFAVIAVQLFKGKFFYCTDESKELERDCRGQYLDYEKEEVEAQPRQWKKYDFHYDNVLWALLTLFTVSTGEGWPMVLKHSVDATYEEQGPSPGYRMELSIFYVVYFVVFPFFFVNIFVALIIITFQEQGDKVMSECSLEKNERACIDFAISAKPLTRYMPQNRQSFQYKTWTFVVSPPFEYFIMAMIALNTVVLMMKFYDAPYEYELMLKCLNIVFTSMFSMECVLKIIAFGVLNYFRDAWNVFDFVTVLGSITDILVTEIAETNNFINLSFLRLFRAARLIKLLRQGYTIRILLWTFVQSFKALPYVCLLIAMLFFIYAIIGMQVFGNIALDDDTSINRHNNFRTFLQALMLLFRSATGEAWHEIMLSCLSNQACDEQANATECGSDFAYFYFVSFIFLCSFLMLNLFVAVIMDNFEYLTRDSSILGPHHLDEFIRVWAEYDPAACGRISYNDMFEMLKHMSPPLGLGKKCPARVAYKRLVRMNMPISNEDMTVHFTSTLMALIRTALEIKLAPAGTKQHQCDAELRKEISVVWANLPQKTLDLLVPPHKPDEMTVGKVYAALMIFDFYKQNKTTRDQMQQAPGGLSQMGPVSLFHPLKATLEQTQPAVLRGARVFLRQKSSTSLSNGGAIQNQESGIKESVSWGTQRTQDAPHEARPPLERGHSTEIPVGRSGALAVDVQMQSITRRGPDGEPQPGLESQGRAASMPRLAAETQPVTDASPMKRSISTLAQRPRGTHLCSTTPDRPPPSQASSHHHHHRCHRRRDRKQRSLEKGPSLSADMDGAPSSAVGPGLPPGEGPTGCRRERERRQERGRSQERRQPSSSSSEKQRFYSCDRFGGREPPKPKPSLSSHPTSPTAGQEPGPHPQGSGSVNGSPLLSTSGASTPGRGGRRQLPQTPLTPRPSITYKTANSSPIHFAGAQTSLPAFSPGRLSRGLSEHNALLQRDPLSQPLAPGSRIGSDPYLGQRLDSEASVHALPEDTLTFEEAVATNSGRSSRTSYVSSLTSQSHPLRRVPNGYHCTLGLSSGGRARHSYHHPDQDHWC
T4 sequence (Q02410 whole entry): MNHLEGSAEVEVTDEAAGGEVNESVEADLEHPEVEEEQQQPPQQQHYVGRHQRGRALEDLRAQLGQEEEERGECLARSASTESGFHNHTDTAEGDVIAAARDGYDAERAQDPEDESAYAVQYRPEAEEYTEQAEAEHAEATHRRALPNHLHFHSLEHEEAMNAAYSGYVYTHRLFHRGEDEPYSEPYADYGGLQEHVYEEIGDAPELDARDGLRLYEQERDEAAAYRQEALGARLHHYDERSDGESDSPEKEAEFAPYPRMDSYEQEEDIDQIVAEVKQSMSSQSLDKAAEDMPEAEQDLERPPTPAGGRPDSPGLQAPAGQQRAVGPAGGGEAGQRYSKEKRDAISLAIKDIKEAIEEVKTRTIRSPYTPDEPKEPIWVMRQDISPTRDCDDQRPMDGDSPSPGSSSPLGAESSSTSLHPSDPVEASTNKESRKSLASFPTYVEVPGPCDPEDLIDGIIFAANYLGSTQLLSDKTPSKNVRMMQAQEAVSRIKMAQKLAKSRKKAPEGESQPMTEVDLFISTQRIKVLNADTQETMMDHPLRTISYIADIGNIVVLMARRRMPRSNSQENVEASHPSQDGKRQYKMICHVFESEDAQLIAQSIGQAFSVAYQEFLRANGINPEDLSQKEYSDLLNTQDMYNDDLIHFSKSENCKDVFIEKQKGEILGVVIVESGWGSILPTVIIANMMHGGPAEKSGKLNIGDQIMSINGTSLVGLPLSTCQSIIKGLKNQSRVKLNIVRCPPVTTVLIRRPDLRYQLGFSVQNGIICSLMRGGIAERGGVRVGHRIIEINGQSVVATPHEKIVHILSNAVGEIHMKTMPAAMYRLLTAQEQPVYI

[30] = luciferase reporter signal suppression in cells – H4 neuroglioma cells, luminescence, dose response (AID 1990); assay type: functional, cell-based
[31] = biological target: T4, Voltage-gated N-type calcium channel alpha-1B subunit/Amyloid beta A4 precursor protein-binding family A member 1; assay type: protein assay; remark: listed apart in the source

Cc1ccc(NC2=C/C(=N\S(=O)(=O)c3cccs3)c3ccccc3C2=O)c(C)c1
active: EC50 [1] 1560 nM | IC50 [2] 6480 nM

O=C1Nc2ccc3ncsc3c2C1=CNc1ccc(S(=O)(=O)Nc2ccccn2)cc1
active: Ki [3] 398 nM | Ki [4] 1260 nM | Ki [5] 126 nM | Ki [6] 25.1 nM | Ki [10] 7.94 nM | Ki [13] 126 nM | Ki [14] 50.1 nM | Ki [15] 158 nM | Ki [16] 79.4 nM | Ki [17] 200 nM | Ki [18] 15.8 nM | Ki [19] 126 nM | Ki [20] 31.6 nM | Ki [21] 15.8 nM | Ki [22] 158 nM | Ki [23] 398 nM
inactive: Ki [7] > 2000 nM | Ki [8] > 1580 nM | Ki [9] > 3980 nM | Ki [11] > 5010 nM | Ki [12] > 1580 nM

COc1ccc(/C=N/NC(=O)c2nn(-c3ccccc3)c(=O)c3c(N)scc23)cc1
active: IC50 [24] 346 nM | IC50 [25] 2150 nM

CC(=O)N(C1=C(Cl)C(=O)c2ccccc2C1=O)C1CCCCC1
active: AC50 [26] 524 nM | AC50 [27] 21500 nM | IC50 [28] 9500 nM | IC50 [29] 3650 nM | EC50 [30] 9510 nM | IC50 [31] 745 nM

— ChEMBL document CHEMBL1201862, “PubChem BioAssay data set” (2004)
